Patent publication US6407217B1, “Imidazolinone haptens and antigens and enzyme conjugates prepared therefrom” (American Cyanamid Company, priority 1994, dated 2002)

Columns and labels:
Assay type in all cases: binding, mouse
[1] = target: monoclonal antibody 3A5.1; assay: Indirect competitive enzyme immunoassay, monoclonal antibody 3A5.1
Source text: (§1) An indirect enzyme immunoassay is used to screen for the production of anti-imidazolinone anti-bodies in the serum of the immunized mice and in cell fusion cultures. The method used is essentially the same as the method described by Voller, et al (Manual of Clinical Immunology, eds. N. Rose Friedman, H., pp. 506-512, 1976). For the indirect enzyme immunoassays, an antigen is adsorbed onto polystyrene flat bottom wells in 0.1M Na2CO3 buffer pH 9.6. Excess unbound material is washed away with buffer (PBS, containing 0.01M NaH2PO4—Na2HPO4 pH 7.6 with 0.05% TWEEN® 20 (a polyoxyethyene sorbitan monolaurate surpactantor Atlas chemical industries and 0.02% NaN3). A 0.05% gelatin solution prepared in PBS is used to block the sites unoccupied by the antigen to prevent non-specific binding of reagents. Antibody from serum or culture are added into the wells for binding to the bound antigen. The wells are washed and the amount of bound anitbody is determined by adding alkaline phosphatase-conjugated goat anti-mouse IgG (Boehringer) to the wells followed by the addition of a p-nitrophenyl phosphate solution for color development. The color intensity is determined spectrophotometrically and is used to determine the titers.
(§2) The bound antigen and imidazolinone compound compete for the antibody molecules. The wells are then washed and the color is developed as described above. In this assay, the color is inversely proportional to the amount of imidazolinone compound. In practice, standard curves are generated with known amounts of an imidazolinone compound and amounts present in test samples are calculated by interpolation.
(§3) Indirect competitive enzyme immunoassays for several imidazolinone compounds, using various monoclonal antibodies and antigens, are conducted according to the procedure described in Example 9. Antigens G and H are as described in Example 10 and Antigen I is shown below.

[2] = target: monoclonal antibody 1D2.6; assay: Indirect competitive enzyme immunoassay, monoclonal antibody 1D2.6
Source text: as §1, §2, §3

[3] = target: monoclonal antibody 1A5.5; assay: Indirect competitive enzyme immunoassay, monoclonal antibody 1A5.5; details: for I50 (half-maximal inhibition): MAb 1A5.5, coating antigen H
Source text: as §1, §2, §3

[4] = target: monoclonal antibody 2C6.5; assay: Indirect competitive enzyme immunoassay, monoclonal antibody 2C6.5
Source text: as §1, §2, §3

[5] = target: monoclonal antibody 3A2.2; assay: Indirect competitive enzyme immunoassay, monoclonal antibody 3A2.2
Source text: as §1, §2, §3

[6] = system: monoclonal antibody 3A2.2; assay: Direct competitive enzyme immunoassay with MAb 3A2.2 and alkaline phosphatase enzyme conjugate; details: mean of triplicate
Source text: The monoclonal antibody 3A2.2 prepared in Example 10 and the enzyme conjugate prepared in Example 12 are used to establish a direct competitive enzyme immunoassay method for the determination of the concentration of imazapyr in samples. A constant amount of the monoclonal antibody 3A2.2 is adsorbed onto polystyrene plate wells through an affinity purified goat anti-mouse immunoglobulin which is previously adsorbed onto the polystyrene plate wells. The wells are washed with buffer (PBS, containing 0.01M NaH2PO4—Na2HPO4 pH 7.6 with 0.05% TWEEN® 20 (a polyoxyethylene sorbitan monolaurate surfactant of Atlas Chemical Industries and 0.02% NaN3) and blocked with a 0.05% gelatin solution prepared in PBS. Standard solutions having concentrations of imazapyr from 0 to 5,000 ng/mL are added to the blocked wells followed by the addition of the aforementioned enzyme conjugate.
After several minutes, the wells are washed and the color is developed by adding BRL alkaline phosphatase substrate amplification kit (commercially available from GIBCO BRL Life Technologies Inc., […], Md.). After several minutes, readings are taken for each well at 490 nm using a microwell reader.
A standard curve plot having the log of imazapyr concentration on the x-axis and the optical density reading at 490 nm (OD 490) on the Y-axis is used to determine unknown concentrations of imazapyr present in soil, water or plant samples from their OD 490 values.
The OD 490 readings for 6 imazapyr standard solutions and a solvent blank are obtained from a direct enzyme immunoassay experiment run in triplicate. The standard curve obtained by plotting the mean OD 490 reading versus the logarithm of the standard imazapyr concentration is used to determine unknown imazapyr concentrations from about 0.5 ng/mL to 500 ng/mL.

Row | Compound | I50 (half-maximal inhibition) ([1]; MAb 3A5.1, coating antigen G) | I50 (half-maximal inhibition) ([1]; MAb 3A5.1, coating antigen I) | I50 (half-maximal inhibition) ([2]; MAb 1D2.6, coating antigen G) | I50 (half-maximal inhibition) ([2]; MAb 1D2.6, coating antigen I) | I50 (half-maximal inhibition) [3] | I50 (half-maximal inhibition) ([4]; MAb 2C6.5, coating antigen G) | I50 (half-maximal inhibition) ([4]; MAb 2C6.5, coating antigen I) | I50 (half-maximal inhibition) ([5]; MAb 3A2.2, coating antigen G) | I50 (half-maximal inhibition) ([5]; MAb 3A2.2, coating antigen I) | OD 490 Reading ([6]; imazapyr 0.05 ng/mL) | OD 490 Reading ([6]; imazapyr 0.50 ng/mL) | OD 490 Reading ([6]; imazapyr 5.0 ng/mL) | OD 490 Reading ([6]; imazapyr 50 ng/mL) | OD 490 Reading ([6]; imazapyr 500 ng/mL) | OD 490 Reading ([6]; imazapyr 5,000 ng/mL) | affinity compared to the other imidazolinone compounds ([2]; MAb 1D2.6) | affinity compared to the other imidazolinone compounds ([3]; MAb 1A5.5)
1 | Cc1cnc(C2=NC(C)(C(C)C)C(=O)N2)c(C(=O)O)c1 (stereo not drawn) [Imazamethapyr, 2-(4-isopropyl-4-methyl-5-oxo-2-imidazolin-2-yl)-5-methylnicotinic acid] | >1,000 ppb (ng/mL) | 340 ppb (ng/mL) | >10,000 ppb (ng/mL) | 250 ppb (ng/mL) | 100 ppb (ng/mL) | 171 ppb (ng/mL) | 204 ppb (ng/mL) | 31 ppb (ng/mL) | 27 ppb (ng/mL) |  |  |  |  |  |  |  | 
2 | mixture of methyl 6-(4-isopropyl-4-methyl-5-oxo-2-imidazolin-2-yl)-m-toluate and methyl 2-(4-isopropyl-4-methyl-5-oxo-2-imidazolin-2-yl)-p-toluate [Imazamethabenz-methyl] | 400 ppb (ng/mL) | 90 ppb (ng/mL) | >10,000 ppb (ng/mL) | 105 ppb (ng/mL) | 500 ppb (ng/mL) |  |  | 322 ppb (ng/mL) | 356 ppb (ng/mL) |  |  |  |  |  |  |  | 
3 | CC(C)C1(C)N=C(c2ncccc2C(=O)O)NC1=O (stereo not drawn) [Imazapyr, 2-(4-isopropyl-4-methyl-5-oxo-2-imidazolin-2-yl)nicotinic acid] |  | >5,000 ppb (ng/mL) | >10,000 ppb (ng/mL) | >1,000 ppb (ng/mL) | 500 ppb (ng/mL) |  |  | 290 ppb (ng/mL) | 331 ppb (ng/mL) | 2.671 | 2.507 | 1.893 | 0.801 | 0.474 | 0.446 |  | 
4 | CC(C)C1(C)N=C(c2nc3ccccc3cc2C(=O)O)NC1=O (stereo not drawn) [Imazaquin, 2-(4-isopropyl-4-methyl-5-oxo-2-imidazolin-2-yl)-3-quinolinecarboxylic acid] |  | 800 ppb (ng/mL) | >10,000 ppb (ng/mL) | 2,000 ppb (ng/mL) | >1,000 ppb (ng/mL) |  |  | 5 ppb (ng/mL) | 3 ppb (ng/mL) |  |  |  |  |  |  |  | 
5 | CCc1cnc(C2=NC(C)(C(C)C)C(=O)N2)c(C(=O)O)c1 (stereo not drawn) [Imazethapyr, 5-ethyl-2-(4-isopropyl-4-methyl-5-oxo-2-imidazolin-2-yl)nicotinic acid] | >1,000 ppb (ng/mL) | 220 ppb (ng/mL) | >10,000 ppb (ng/mL) | 20 ppb (ng/mL) | 60 ppb (ng/mL) | 13 ppb (ng/mL) | 15 ppb (ng/mL) | 34 ppb (ng/mL) | 21 ppb (ng/mL) |  |  |  |  |  |  | greater affinity | greater affinity
